From patent publication EP0342003B1, “Use of 15-ketoprostaglandin E or F compounds for uterine contraction” (Kabushiki Kaisha Ueno Seiyaku Oyo Kenkyujo, priority 1988, dated 1989) come the findings set out here.

One assay relates to uterus. Description: Uterine contraction of an isolated uterus section in a Magnus tube. It counts as cell-based. The following applies: Rattus norvegicus, ratio to contraction by oxytocin (1mU) taken as 100%; for activation at 0.3 µM: Dose 3x10⁻⁷ M; for activation at 1 µM: Dose 1x10^-6 M. The procedure:
Test Example 1 (Uterine contraction)
An estrous rat (female, 150g) was used as test animals. The rat was sacrificed by bleeding and uterus was extirpated. A section of about 2.0cm was cut off and hung in a Magnus tube containing Tyrode solution or Beauvillain solution.
The section of uterus was held for about 5 minutes until it because stable and then contracted several times by administering oxytocin (1mU). After stable contraction was obtained, the section received test compounds. Contractions obtained by the test compounds were expressed as a ratio to the contraction by oxytocin which was taken as 100%. The results are shown in Table 1 (15-keto-PGE derivatives) and Table 2 (15-keto-PGF derivatives).

In the next assay the test system is ileum. Description: Intestinal contraction of an isolated ileum section in a Magnus tube (reference example). It counts as cell-based, Wistar rat. Particulars: result in words. The method, then: Test Example 3 (Intestinal contraction ... Reference example)
A section was cut off from ileum of a Wistar rat (male) and hung in a Magnus tube. The section was contracted several times by administering acetylcholine (1x10⁻⁶ g/ml) and received test compounds after giving two or more contractions of the same intensity. Contractions obtained by the test compounds were expressed as a ratio to the contraction by acetylcholine (1x10⁻⁶ g/ml) which was taken as 100%, and EC₅₀ values were calculated as a concentrations for 50% contraction.

As to `CCCCC(F)C(=O)CC[C@@H]1[C@@H](C/C=C\CCCC(=O)O)[C@@H](O)C[C@H]1O` (stereo partly drawn) [Y-1, 13,14-dihydro-15-keto-16R,S-fluoro-PGF2α], the activation at 0.3 µM with uterus (Table 2) came to 89%.

On to `COC(=O)CCC/C=C\C[C@@H]1[C@@H](CCC(=O)COc2cccc(C(F)(F)F)c2)[C@H](O)C[C@@H]1O` [Y-10, 13,14-dihydro-15-keto-16-desbutyl-16-m-trifluoromethylphenoxy-PGF2α methyl ester], for which, in the assay with uterus (Table 2), the activation at 0.3 µM is 92%.

With `O=C(O)CCC/C=C\C[C@H]1C(=O)C[C@@H](O)[C@@H]1CCC(=O)COc1cccc(C(F)(F)F)c1` [X-15], the activation at 1 µM in the assay with uterus (Table 1) turned out to be 32%.

`O=C(O)CCC/C=C\C[C@@H]1[C@@H](CCC(=O)COc2cccc(C(F)(F)F)c2)[C@H](O)C[C@@H]1O` [Y-12, 13,14-dihydro-15-keto-16-desbutyl-16-m-trifluoromethylphenoxy-PGF2α]: the activation at 0.1 µM with uterus (Table 2, Dose 1x10⁻⁷ M) amounted to 52%.

`CCCCC(F)(F)C(=O)CC[C@H]1[C@H](O)CC(=O)[C@@H]1C/C=C\CCCC(=O)OC` [X-13]: the activation at 1 µM in the assay with uterus (Table 1) turned out to be 63%.

For the compound `CCCCC(F)C(=O)CC[C@H]1[C@H](O)CC(=O)[C@@H]1CC(=O)CCCCC(=O)OCC` (stereo partly shown) [X-1, 13,14-dihydro-6,15-diketo-16R,S-fluoro-PGE1 ethyl ester], the activation at 100 µM in the assay on uterus (Table 1, Dose 1x10^-4 M) came out at 86%.

Take `CCCCC(F)C(=O)CC[C@H]1[C@H](C)CC(=O)[C@@H]1C/C=C\CCCC(=O)OCC` (stereo partly drawn) [X-7, 13,14-dihydro-15-keto-16R,S-fluoro-11-dehydroxy-11R-methyl-PGE2 ethyl ester]: the activation at 100 µM with uterus (Table 1, Dose 1x10^-4 M) was found to be 50%.

For the compound `CCCCC(F)(F)C(=O)CC[C@H]1[C@H](O)CC(=O)[C@@H]1C/C=C\CCCC(=O)O` [X-14], in the assay on uterus (Table 1), the activation at 1 µM was found to be 81%.

Consider `CCCCC(O)C(=O)CC[C@H]1[C@H](O)CC(=O)[C@@H]1C/C=C\CCCC(=O)OCC` (stereo partly shown) [X-3, 13,14-dihydro-15-keto-16R,S-hydroxy-PGE2 ethyl ester], for which the activation at 100 µM in the assay with uterus (Table 1, Dose 1x10^-4 M) turned out to be 50%.

For the compound `CCCCC(F)C(=O)CC[C@H]1[C@H](O)CC(=O)[C@@H]1CCCCCCC(=O)O` (stereo partly shown) [X-12], the activation at 1 µM with uterus (Table 1) was 34%.

As for `CCCCC(F)C(=O)CC[C@H]1[C@H](C)CC(=O)[C@@H]1CC(=O)CCCCC(=O)OCC` (stereo partly drawn) [X-2, 13,14-dihydro-6,15-diketo-16R,S-fluoro-11-dehydroxy-11R-methyl-PGE1 ethyl ester], in the assay with uterus (Table 1, Dose 1x10^-5 M), the activation at 10 µM was determined as 82%.

Turning to `CCCCCCC(F)C(=O)CC[C@@H]1[C@@H](C/C=C\CCCC(=O)OC)[C@@H](O)C[C@H]1C` (stereo partly drawn) [Y-8, 13,14-dihydro-15-keto-20-ethyl-16R,S-fluoro-11-dehydroxy-11R-methyl-PGF2α methyl ester], in the assay on uterus (Table 2, Dose 1x10⁻⁴ M), the activation at 100 µM turned out to be 50%.

Regarding `CCCCCCC(F)C(=O)CC[C@@H]1[C@@H](C/C=C\CCCC(=O)OC)[C@@H](O)C[C@H]1O` (stereo partly drawn) [Y-7, 13,14-dihydro-15-keto-20-ethyl-16R,S-fluoro-PGF2α methyl ester], the activation at 10 µM in the assay on uterus (Table 2, Dose 1x10⁻⁵ M) amounted to 85%.

`CCCCC(F)C(=O)CC[C@@H]1[C@@H](C/C=C\CCCC(=O)OC)[C@@H](O)C[C@H]1O` (stereo partly drawn) [Y-2, 13,14-dihydro-15-keto-16R,S-fluoro-PGF2α methyl ester]: in the assay with uterus (Table 2, Dose 3x10⁻⁶ M), the activation at 3 µM was found to be 70%.

Regarding `CCCCCC(=O)CC[C@@H]1[C@@H](C/C=C\CCCC(=O)OC)[C@@H](O)C[C@H]1O` [13,14-dihydro-15-keto-PGF2α methyl ester], the intestinal contraction entry with ileum is given as “without intestinal contraction”.

As for `CCCCC(F)C(=O)/C=C/[C@@H]1[C@@H](C/C=C\CCCC(=O)OC)[C@@H](O)C[C@H]1O` (stereo partly drawn) [Y-11, 15-keto-16R,S-fluoro-PGF2α methyl ester], the activation at 10 µM in the assay on uterus (Table 2, Dose 1x10⁻⁵ M) is 95%.

Consider `CCCCC(F)C(=O)/C=C/[C@H]1[C@H](O)CC(=O)[C@@H]1C/C=C\CCCC(=O)OC` (stereo partly shown) [X-9], for which the activation at 10 µM in the assay on uterus (Table 1, Dose 1x10^-5 M) stood at 84%.

Regarding `CCCCC(F)C(=O)CC[C@H]1[C@H](O)CC(=O)[C@@H]1C/C=C\CCCC(=O)OCC` (stereo partly shown) [X-6, 13,14-dihydro-15-keto-16R,S-fluoro-PGE2 ethyl ester], in the assay on uterus (Table 1, Dose 1x10^-5 M), the activation at 10 µM is 89%.

With `COCCCCC(C)(C)C(=O)CC[C@H]1[C@H](O)CC(=O)[C@@H]1C/C=C\CCCC(=O)OC` [X-8], in the assay with uterus (Table 1, Dose 1x10^-5 M), the activation at 10 µM stood at 64%.

Take `CCCCC(F)C(=O)CC[C@H]1[C@H](O)CC(=O)[C@@H]1C/C=C\CCCC(=O)OC` (stereo partly shown) [X-5, 13,14-dihydro-15-keto-16R,S-fluoro-PGE2 methyl ester]: the activation at 3 µM in the assay with uterus (Table 1, Dose 3x10^-6 M) was 64%.

Consider `CCCCC(F)C(=O)CC[C@@H]1[C@@H](C/C=C\CCCC(=O)OCC)[C@@H](O)C[C@H]1C` (stereo partly drawn) [Y-4, 13,14-dihydro-15-keto-16R,S-fluoro-11-dehydroxy-11R-methyl-PGF2α ethyl ester], for which the activation at 100 µM in the assay with uterus (Table 2, Dose 1x10⁻⁴ M) came out at 50%.

On to `CCCCCCC(F)C(=O)CC[C@@H]1[C@@H](C/C=C\CCCC(=O)O)[C@@H](O)C[C@H]1O` (stereo partly drawn) [Y-6, 13,14-dihydro-15-keto-20-ethyl-16R,S-fluoro-PGF2α], for which the activation at 0.3 µM in the assay on uterus (Table 2) turned out to be 92%.

Regarding `CCCCC(F)C(=O)CC[C@H]1[C@H](O)CC(=O)[C@@H]1C/C=C\CCCC(=O)O` (stereo partly shown) [X-4, 13,14-dihydro-15-keto-16R,S-fluoro-PGE2], the activation at 1 µM in the assay with uterus (Table 1) was 87%.

As to `CCCCC(F)(F)C(=O)CC[C@@H]1[C@@H](C/C=C\CCCC(=O)OC)[C@@H](O)C[C@H]1O` [Y-3, 13,14-dihydro-15-keto-16,16-difluoro-PGF2α methyl ester], in the assay on uterus (Table 2, Dose 3x10⁻⁶ M), the activation at 3 µM came out at 82%.

In the case of `COCCCCCC(=O)CC[C@@H]1[C@@H](C/C=C\CCCC(=O)OC)[C@@H](O)C[C@H]1O` [Y-9, 13,14-dihydro-15-keto-20-methoxy-PGF2α methyl ester], the activation at 100 µM with uterus (Table 2, Dose 1x10⁻⁴ M) stood at 50%.

On to `CCCCCC(F)C(=O)CC[C@@H]1[C@@H](C/C=C\CCCC(=O)OC)[C@@H](O)C[C@H]1O` (stereo partly drawn) [Y-5, 13,14-dihydro-15-keto-16R,S-fluoro-20-methyl-PGF2α methyl ester], for which the activation at 3 µM in the assay with uterus (Table 2, Dose 3x10⁻⁶ M) came out at 42%.

For the compound `CCCCC(F)C(=O)/C=C/[C@H]1[C@H](O)CC(=O)[C@@H]1C/C=C\CCCC(=O)O` (stereo partly shown) [X-11], the activation at 1 µM in the assay with uterus (Table 1) was found to be 80%.

For `CCCCCC(F)C(=O)CC[C@H]1[C@H](O)CC(=O)[C@@H]1C/C=C\CCCC(=O)OC` (stereo partly shown) [X-10], in the assay with uterus (Table 1, Dose 1x10^-5 M), the activation at 10 µM stood at 80%.
